In US8772493B2, “Compounds having auditory protective effect” (Ajou University Industry-Academic Cooperation Foundation, priority 2010, dated 2014):

How the values were obtained:
[1] = test system: auditory cells; test: FACScan with Annexin-V and PI double staining; format: cell-based
Method: The degree of apoptosis was analyzed with Annexin V-FITC Apoptosis Detection kit I (BD Biosciences, San Diego, Calif.). 3×10^5 cells were seeded on 60 mm dish, incubated, then starved for 24 hours, and treated with the compounds of Examples 1 and 2 by conditions and incubated for 24 hours. After removing the culture solution, the cells were washed two times with PBS, and suspended in the binding buffer in the ratio of 1×10^6 cells/ml. 100 μl of this solution was transferred to 5 ml tube, and after addition of 5 μl of Annexin V-FITC to the tube, well mixed together, and then reacted for about 15 minutes in the dark place. Then, 400 μl of the binding buffer was added, and the cells were counted until 10,000 cells were on Becton Dicki nson FACSscan (Lysis II Ver. 1.0). The degree of apoptosis was measured depending on the expression of Annexin V-FITC from the result of FACScan flowcytometry. In addition, the degree of apoptosis was also measured under fluorescence microscope.

[2] = test system: UB-OC1; test: MTT assay in auditory cells UB-OC1; format: cell-based
Method: (§1) HEI-OC1 and UB-OC1 as auditory cells were subjected to MTT assay. Auditory cell lines were seeded on a 96-well plate in the ratio of 2×10^3 cells/well, and then cultured in an incubator under the condition of 37° C., 5% CO2 for 2 days. The compounds of Examples 1 and 2 were used at various concentrations with operating 5 runs for each sample, and then cultured in the incubator for 16 hours. The plate was treated with 1 mg/ml MTT solution per well, and then cultured in the incubator for 4 hours. Then, 100 μl DMSO per well was used to dissolve formazan, and the optical density of formazan as dissolved was measured at 540 nm.

[3] = test system: zebrafish neuromast; test: Scanning and transmission electron microscopy of zebrafish neuromast; format: in vivo, Danio rerio; details: 50 μM cisplatin
Description: They were dried with a drier, treated with an evaporator (MED010; Baltec, Hudson, N.H.), and then observed using a scanning microscope (JSM-6700F JEOL, Tokyo, Japan).
Larvae were cut in the direction from head to tail, sliced to a thickness of […], and then stained with 1% toluidine blue. They were divided into ultrathin sections (90 nm) using Ultracut S microtome (Leica, Wetzlar, Germany), mounted on 200-mesh Athene thin bar-grids, treated with uranyl acetate and lead citrate, and then observed using s transmission electron microscope (EM 902A Carl Zeiss).

[4] = test system: JNK, p38, cleaved caspase 3, PARP in HEI-OC1; test: Western blotting of apoptosis-related proteins; format: cell-based
[5] = test system: HEI-OC1; test: Measurement of mitochondrial membrane potential (MMP), JC-1; format: cell-based
Method: The mitochondrial membrane potential (MMP) was measured using 5,5V,6,6V-tetrachloro-1,1V,3,3V-tetraethylbenzimidazolcarbocyanine iodide (JC-1; Molecular Probes) as a lipophilic cationic probe.
JC-1 is a fluorescent dye which is accumulated by mitochondria in its inside. If the function of mitochondria is normal, MMP is high and mitochondria are predominantly red. Then, if mitochondria are damaged, MMP is reduced and mitochondria are changed into green.

[6] = test system: zebrafish neuromast; test: Observation of zebrafish neuromast using fluorescent microscope (Yo-Pro-1); format: in vivo, Danio rerio
Method: When embryo of zebrafish (Danio rerio) wild type is on the 4th day, the drugs (compounds of Examples 1 and 2) were added to 2 ml of embryo media in 6 well, and then 5 embryos were added to each group and reacted with the drug in the incubator maintained at 28.5° C. for one hour. After reaction, embryos were washed three times with embryo media, and then placed in clean embryo media for 3 hours. After 3 hours, […] of Yo-Pro-1 (molecular probes, Oregon U.S.A) was added to embryo media, and then reacted for one hour in the place with blocking the light. After reaction, embryos were washed again three times with clean embryo media, and anesthetized with 8 μg/ml of MS222 (3-aminobenzoic aid ethyl ester, methanesulfonate salt, Sigma Chemical CO, St Louis, U.S.A) anesthetic.

[7] = test system: HEI-OC1 cells; test: Measurement of intracellular ROS generation (DCFDA); format: cell-based
Method: Intracellular generation of ROS was quantified using 5-(and 6)-carboxyl-20,70-dichlorodihydro fluorescein diacetate (DCFDA; Molecular Probes, Eugene, Oreg., USA). […] ROS generation at various time points was checked and the amount of ROS generation was the highest at 16 h. Therefore, 16 h as the time point for ROS detection was chosen for subsequent experiments. Cells were incubated in the dark with 10 μM DCFDA in serum-free medium for 10 min at 33° C. The oxidative burst (hydrogen peroxide, H2O2) was detected using a FACScan flow cytometer (Becton Dickinson, Franklin Lakes, N.J., USA) with excitation and emission settings at 488 and 530 nm, respectively.

[8] = test system: rat hearing; test: Measurement of brainstem evoked potential hearing in rat; format: in vivo; details: cisplatin in combination with compound (2 mM inside eardrum)
Method: Rats were anesthetized with a mixed anesthetic of 1:1 zoletil and rompun, and then subjected to the examination of brainstem evoked potential hearing. […] The stimulus sound was measured by lowering 13 times/sec of the alternating click sound from the strength of 75 dB HL at the ratio of 5 dB per step. The hearing threshold was defined to be a strength at which the normal wave form I is assumed on the basis of the wave form I, the frequency filter of click sound was controlled to 100-3000 Hz, and the number of total stimulus sound was 1,024.
The drug was administered inside eardrum of rats with a 26 gage needle. The brainstem evoked potential hearing was measured a total of three times on days 1, 3 and 7 after administration of the drug.

[9] = test system: neuromasts of zebrafish; format: in vivo; details: 4 dpf larvae, 50 μM cisplatin co-treatment with compound
Method: To detect the apoptotic cells in the embryos, TUNEL assay was employed. […] Thereafter, the larvae were washed with PBS and fixed in 4% paraformaldehyde with 0.1% Tween 20 at room temperature for 24 h. The fixed embryos were then dehydrated, rehydrated, and treated with 60 μg/ml protease kinase (Invitrogen, USA) for 10 min. After the protease kinase treatment, the embryos were fixed in 4% paraformaldehyde in PBS with 0.1% Tween 20 again. The TUNEL staining was achieved by using an in situ apoptosis detection kit. The fixed embryos were immersed in the permeabilization buffer for 30 min on ice. The apoptotic cells were labeled by staining the embryos in a mixture of Terminal Deoxynucleotidyl Transferase (TdT) enzyme and labeling safe buffer containing Fluorescein labeled-2′-Deoxyuridine, 5′-Triphosphate, FITC-dUTP in the ratio of 1 to 9. The embryos were then incubated in a 37° C. humidified chamber for 120 min. The embryos were finally washed thoroughly by PBS in 0.1% Tween 20. The apoptotic signals were captured by a fluorescence microscope (Carl Zeiss, Oberkochen, Germany).

[10] = test system: HEI-OC1; test: TUNEL assay; format: cell-based
Method: 3×10^5 cells were seeded on the 6-well, incubated, then starved for 24 hours, and treated with the drug of the present invention by conditions, and then incubated for 24 hours. The cells were fixed with addition of 4% paraformaldehyde at normal temperature for 30 minutes, then washed two times with PBS, and treated with the permeablilization solution comprising 0.1% Triton X-100 at normal temperature for 10 minutes. The cells were washed again two times with PBS, and after adding terminal deoxynucleotidyl transferase (TDT) and nucleotide mixture, incubated for one hour with blocking out the light at 37° C. After washing two times with PBS, the apoptosis of cells was examined under fluorescence microscope. For control staining of cells without apoptosis, 4,6-diamino-2-phenylindole (DAPI, Sigma) solution was used. The stained cells were analyzed using a fluorescence microscope (Carl Zeiss, Oberkochen, Germany). TUNEL-positive cells were manually counted under a 200× magnification field in triplicate.

[11] = test system: HEI-OC1 cells; test: Cell cycle analysis using FACScan; format: cell-based
Method: The cells were treated with trypsin, washed with PBS, and then stained with a dye (5 mg/ml propidium iodide, 20 mg/ml RNase A) in a dark room at normal temperature for 15 minutes. The stained cells were analyzed with a flow cytometry cell sorter (Becton Dickinson).

[12] = test system: zebrafish (Danio rerio) embryo; test: Drug toxicity in zebrafish and effect on zebrafish embryos; format: in vivo
Method: To identify the drug toxicity of the compound of the present invention, zebrafish (Danio rerio) embryo was treated with the compound of Example 1 by concentrations (0, 50, 100, 150, 200, 400 μM), and then cultured in the incubator at 28.5° C. for one hour, washed three times with fresh 0.3× Danieu's Solution, and then cultured at 28.5° C. for 3 hours. The embryotoxicity was identified by examining the hatching rate, organogenesis, development, etc. of embryo under a microscope (AXIO vert 200, Carl zeiss, Gottingen, Germany), and the survival rate of embryo was determined depending on whether the cardiac contractility of embryo is present or absent.
Further, to determine the general toxicity of the compound of Example 1, the influence of the compound of Example 1 on embryos of zebrafish were tested. One female and two male sexually mature zebrafish were maintained for a 14 h light/10 h dark photoperiod. Several rectangular mesh wire boxes were placed at the bottom of the aquaria to collect the eggs the following morning. The eggs were pre-treated with the compound of Example 1 (100 μg/ml) for 1 hr, after then the eggs were washed twice with sea salt 1×. […] After three washes with sea salt 1×, the zebrafish eggs were observed under a microscope.

[13] = test system: HEI-OC1; test: MTT assay in auditory cells HEI-OC1; format: cell-based; details: for cytotoxicity in auditory hair cells (MTT): HEI-OC1, compound alone, up to elevated dose of 200
Method: as §1

[14] = test system: rat hearing; test: Auditory brainstem responses after transtympanic injection in rat; format: in vivo, Sprague-Dawley rats; details: rat ears pretreated with transtympanic compound (2 mM), then cisplatin
Method: Sixteen female Sprague-Dawley rats (Samtaco, Osan, Korea) weighing between 180 and 220 g were used. After transportation, the animals were maintained in the central animal laboratory for at least 1 week. The animals were housed in independently ventilated cages and were allowed free access to water and food. The temperature was maintained at 21±1° C., and the lights were turned on from 8:00 AM to 8:00 PM. Rats with an inner ear infection were not used. This study was approved by the Committee for Ethics in Animal Experiments of the Ajou University School of Medicine.
Animals were sedated using an intraperitoneal (IP) injection of 3.125 mg/kg xylazine, 3.125 mg/kg zolazepam and 11.5 mg/kg xylazine. The rats were divided into two groups after baseline auditory brainstem response (ABR) testing was performed. […] The control group (four rats, eight ears) received transtympanic saline in both ears followed by IP saline (16 mL/kg by IP infusion). […] Posttreatment ABR was obtained on day 14.
Preyer's reflex and otoscopy were used to confirm that the middle ears were normal. The rats were anaesthetized using an IP injection of 3.125 mg/kg zolazepam and 11.5 mg/kg xylazine. Subdermal sterile stainless steel electrode needles were attached, with the active lead at the vertex that referred to a second electrode located at the tip of the nose. The grounding electrode was placed on the front paw muscles. […]

[15] = test system: rat cochlea; test: Tissue TUNEL assay of rat cochlea; format: in vivo; details: cisplatin only
Method: Animals were sedated using an intraperitoneal (IP) injection of 3.125 mg/kg xylazine, 3.125 mg/kg zolazepam and […]. The rats were divided into two groups after baseline auditory brainstem response (ABR) testing was performed. […] The control group (four rats, eight ears) received transtympanic saline in both ears followed by IP saline (16 mL/kg by IP infusion). The compound of Example 2 only group (four rats, eight ears) received transtympanic the compound of Example 2 in both ears followed by IP saline (16 mL/kg by IP infusion). On days 2 to 5, daily transtympanic injections of either 2 mM the compound of Example 2 or saline were continued. Posttreatment ABR was obtained on day 14.
After fixation by intralabyrinthine perfusion of 4% paraformaldehyde (pH 7.4), the cochleae were removed and then were incubated in the same fixative overnight. Decalcification was performed in ethylenediamine tetraacetic acid solution (EDTA) (10% in PBS) for 3-4 weeks. Subsequently, the tissues were embedded in paraffin.
Organ of Corti explants were each fixed for 15 min in 3.7% (v/v) formaldehyde in PBS at room temperature. Each explant was rinsed with PBS and incubated in proteinase K diluted from the TUNEL kit for 15 min at room temperature. […] Each explant was washed twice with PBS and examined using a fluorescence microscope.

NC1(c2ccc(F)cc2)C(=O)Nc2ccccc2C1=O (centres unmarked) [Example 1, 3-amino-3-(4-fluorophenyl)quinolin-2,4(1H,3H)-dione]
apoptosis increased by cisplatin (annexin/PI FACS), simultaneous administration of compound ([1]; 50 μM of cisplatin plus compound): statistically significantly inhibited
effect of 100 μM compared to 50 μM of compound (annexin/PI FACS) ([1]; with 50 μM cisplatin, dose-dependent manner): better effect
cisplatin-induced apoptosis of auditory hair cells (MTT) ([2]; UB-OC1, 50 of cisplatin plus compound, as the dose of the compound increases): statistically significantly inhibited
cytotoxicity in auditory hair cells (MTT) ([2]; UB-OC1, compound alone, up to elevated dose of 200): substantially no cytotoxicity
damage of kinocilium and stereocilia caused by cisplatin (SEM, TEM) ([3]; combined use of compound): inhibited the damage of kinocilium and stereocilia
cisplatin-induced JNK, p38, cleaved caspase 3, PARP ([4]; cisplatin plus compound): effectively inhibited
cisplatin-induced mitochondria damage (loss of MMP, green fluorescence) ([5]; cisplatin plus compound): inhibited
neuromast including auditory hair cells disappeared by cisplatin ([6]; cisplatin plus compound, dose-dependent): effectively protected
cisplatin-induced intracellular ROS generation ([7]; 50 μM cisplatin plus compound (100 μg/ml), 16 h): significantly inhibited
hearing threshold [8]: 25˜35 dB
TUNEL positive cells in zebrafish larvae compared to cisplatin alone [9]: reduced TUNEL positive cells
apoptosis of auditory cells (TUNEL), cisplatin and compound at the same time ([10]; cisplatin (50 μM with Example 1, 20 μM with Example 2) and compound administered at the same time): inhibited
apoptosis (TUNEL positive cells) on administration of compound alone [10]: did not cause apoptosis
effect of 100 μM compared to 50 μM of compound (TUNEL) ([10]; with cisplatin, dose-dependent manner): better effect
cisplatin-induced increase in sub G1 ([11]; cisplatin plus compound): effectively reduced
drug toxicity for 7 days after incubation of zebrafish ([12]; 50, 100, 150, 200, 400 μM): did not show the drug toxicity
zebrafish embryos, damage caused by cisplatin ([12]; cisplatin (50 μM) plus compound, 24 h): rescued
embryotoxicity in zebrafish model ([12]; even at the concentration of 400 μM): did not show the drug toxicity
cisplatin-induced apoptosis of auditory hair cells (MTT) ([13]; HEI-OC1, 50 of cisplatin plus compound, as the dose of the compound increases): statistically significantly inhibited
cytotoxicity in auditory hair cells (MTT) [13]: substantially no cytotoxicity

NC1(c2ccc(F)cc2)C(=O)Nc2cccc(F)c2C1=O (centres unmarked) [Example 2, 3-amino-5-fluoro-3-(4-fluorophenyl)quinolin-2,4(1H,3H)-dione]
apoptosis (TUNEL positive cells) on administration of compound alone [10]: did not cause apoptosis
average click-evoked ABR threshold shift [14]: 38.5±11.3 dB
click-evoked ABR threshold shift, range [14]: 27-49 dB
cytotoxicity in auditory hair cells (MTT) [13]: substantially same result

N.N.[Cl][Pt][Cl] [cisplatin, reference compound]
apoptosis (annexin/PI FACS) ([1]; 50 μM of cisplatin): increased
auditory hair cells killed by cisplatin (MTT) ([2]; UB-OC1, 50 of cisplatin): about 50%
kinocilium of auditory cells of neuromast (SEM, TEM) [3]: markedly damaged or mostly disappeared or fused
JNK, p38, cleaved caspase 3, PARP ([4]; cisplatin alone): increased
mitochondrial membrane potential (JC-1 fluorescence) ([5]; cisplatin alone): changed into green fluorescence
reduction of neuromast ([6]; 50 μM cisplatin, zebrafish 4th day): ≥ 70%
neuromast ([6]; 100 μM cisplatin, zebrafish 4th day): substantially all of neuromast was disappeared
TUNEL positive cells in cochlea versus control group [15]: more numerous
generation of intracellular ROS ([7]; cisplatin, time-dependent): significantly increased
sub G1 related to apoptosis ([11]; cisplatin alone): increase
auditory hair cells killed by cisplatin (MTT) ([13]; HEI-OC1, 50 of cisplatin): about 50%
